Experimental data: US9723817B2 (priority 2011, dated 2017)

Key:
wild type N2 C. elegans = experiment: EPG recording of pharyngeal pumping in microfluidic EPG array, wild type worms; assay type: in vivo, Caenorhabditis elegans
Protocol: (§1) C. elegans strains were grown on Nematode Growth Medium (NGM) agar plates seeded with the OP50 strain of E. coli. All strains were obtained from the Caenorhabditis Genetics Center (CGC; Minneapolis, Minn.). Wild-type worms were Bristol N2 and Ivermectin (IVM) resistant mutants were DA1316 avr-14(ad1302); avr-15(ad1051); glc-1(pk54). Worms were age synchronized by allowing gravid adults to lay eggs on seeded NGM plates for approximately 6 hr. The adults were then removed and embryos allowed to develop to adulthood at room temperature.
All experiments utilized M9 buffer (recipe available on the World Wide Web at 130.15.90.245/wormlab_recipe_book.htm#Commonlab; containing KH2PO4, NaHPO4, NaCl and MgSO4) to which serotonin (5HT) was added to stimulate pharyngeal pumping (Raizen and Avery, Neuron 1994 March; 12(3):483-95). Stocks of serotonin creatine sulfate monohydrate (Sigma H7752; St. Louis, Mo.) were prepared in M9 buffer at 40 mM and held in small aliquots at −20° C. until use. Each day of an experiment, a fresh aliquot was thawed and diluted to 10 mM 5HT in M9 buffer. This “M9-5HT” buffer was the control medium to which drugs or other compounds were added. Stock solutions of ivermectin (10 mM; Sigma 8898) were made up in dimethyl sulfoxide (DMSO, Fisher D-136; Fair Lawn, N.J.) and held at −20° C. for no longer than 2 wk. On the day of an experiment, IVM was diluted to the final concentration in M9-5HT buffer containing 0.005% Fast Green (Fisher F-99) as a visual indicator of drug flow within the chip (see below). The dye-containing M9-5HT buffer was filtered (PALL Life Sciences 25 mm Acrodisc syringe filter with 0.2 μm HT Tuffryn Membrane; Port Washington, N.Y.) before drug or DMSO was added.
Young adult worms were transferred from growth plates into a glass well containing M9-5HT buffer and left to acclimate for 10 minutes. […]
(§2) EPGs were recorded by a pair of 4-channel AC differential amplifiers (A-M Systems model 1700, Carlsborg, Wash.) connected to electrodes inserted into the device. […]

[1] = test system: ivermectin resistance mutant C. elegans avr-14(ad1302); avr-15(ad1051); glc-1(pk54); experiment: EPG recording of pharyngeal pumping in microfluidic EPG array, ivermectin-resistant mutant worms; assay type: in vivo, Caenorhabditis elegans; details: 10 μM ivermectin in M9-5HT buffer, ivermectin-resistant mutant (FIG. 5)
Protocol: as §1
All experiments utilized M9 buffer (recipe available on the World Wide Web at 130.15.90.245/wormlab_recipe_book.htm#Commonlab; containing KH2PO4, NaHPO4, NaCl and MgSO4) to which serotonin (5HT) was added to stimulate pharyngeal pumping (Raizen and Avery, Neuron 1994 March; 12(3):483-95). Stocks of serotonin creatine sulfate monohydrate (Sigma H7752; St. Louis, Mo.) were prepared in M9 buffer at 40 mM and held in small aliquots at −20° C. until use. Each day of an experiment, a fresh aliquot was thawed and diluted to 10 mM 5HT in M9 buffer. This “M9-5HT” buffer was the control medium to which drugs or other compounds were added. […]
as §2

Compound | inhibition of pharyngeal pumping (EPG) (wild type N2 C. elegans; 10 mM levamisole in M9-5HT buffer, within 10 minutes (FIG. 6B)) | pharyngeal pumping after washout of drug (EPG) (wild type N2 C. elegans; after 10 mM levamisole, within 60 minutes of wash onset with control buffer (FIG. 6C)) | block of pharyngeal pumping (EPG) [1] | size and frequency of EPG signal (wild type N2 C. elegans; 10 μM ivermectin in M9-5HT buffer, 10 minutes after treatment, all eight C. elegans (FIG. 4))
c1ccc([C@H]2CN3CCSC3=N2)cc1 [levamisole] | completely inhibited | returned to normal |  | 
ivermectin |  |  | failed to block | significantly reduced or even eliminated
